From PubChem BioAssay (NCI)
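Cells were grown in 96-well plates and exposed to each compound for 48 hours at five concentrations; endpoints were interpolated linearly between bracketing concentrations, or set to the highest concentration if not reached. Definition used: TGI = concentration required for complete inhibition of growth.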

What was measured:
Assay in all cases: NCI tumour cell line growth inhibition, 48 h
SK-OV-3 ovarian = tested on: SK-OV-3 ovarian
DMS 114 small cell lung = tested on: DMS 114 small cell lung
TK-10 renal = tested on: TK-10 renal
SF-268 CNS = tested on: SF-268 CNS
SK-MEL-28 melanoma = tested on: SK-MEL-28 melanoma
HCC-2998 colon = tested on: HCC-2998 colon
NCI-H23 lung = tested on: NCI-H23 lung
786-0 renal = tested on: 786-0 renal
ACHN renal = tested on: ACHN renal
DLD-1 colon = tested on: DLD-1 colon
UO-31 renal = tested on: UO-31 renal
M14 melanoma = tested on: M14 melanoma
OVCAR-5 ovarian = tested on: OVCAR-5 ovarian
SK-MEL-2 melanoma = tested on: SK-MEL-2 melanoma
M19-MEL melanoma = tested on: M19-MEL melanoma
RXF-631 renal = tested on: RXF-631 renal
P388 leukemia = tested on: P388 leukemia
A549 NSCLC = tested on: A549 NSCLC
CCRF-CEM leukemia = tested on: CCRF-CEM leukemia
RXF 393 renal = tested on: RXF 393 renal
HOP-92 NSCLC = tested on: HOP-92 NSCLC
MCF7 breast = tested on: MCF7 breast
OVCAR-4 ovarian = tested on: OVCAR-4 ovarian
SN12C renal = tested on: SN12C renal
MOLT-4 leukemia = tested on: MOLT-4 leukemia
OVCAR-8 ovarian = tested on: OVCAR-8 ovarian
SW-620 colon = tested on: SW-620 colon
LXFL 529 NSCLC = tested on: LXFL 529 NSCLC
NCI-H522 lung = tested on: NCI-H522 lung
UACC-257 melanoma = tested on: UACC-257 melanoma
KM20L2 colon = tested on: KM20L2 colon
NCI-H226 lung = tested on: NCI-H226 lung
EKVX NSCLC = tested on: EKVX NSCLC
SR leukemia = tested on: SR leukemia
SF-295 CNS = tested on: SF-295 CNS
NCI/ADR-RES ovarian = tested on: NCI/ADR-RES ovarian
CAKI-1 renal = tested on: CAKI-1 renal
COLO 205 colon = tested on: COLO 205 colon
A498 renal = tested on: A498 renal
SNB-19 CNS = tested on: SNB-19 CNS
HT29 colon = tested on: HT29 colon
HCT-15 colon = tested on: HCT-15 colon
SNB-75 CNS = tested on: SNB-75 CNS
HOP-18 NSCLC = tested on: HOP-18 NSCLC
HL-60(TB) leukemia = tested on: HL-60(TB) leukemia
UACC-62 melanoma = tested on: UACC-62 melanoma
DMS 273 small cell lung = tested on: DMS 273 small cell lung
KM12 colon = tested on: KM12 colon
SNB-78 CNS = tested on: SNB-78 CNS
U251 CNS = tested on: U251 CNS
NCI-H460 lung = tested on: NCI-H460 lung
HOP-62 NSCLC = tested on: HOP-62 NSCLC
HCT-116 colon = tested on: HCT-116 colon
OVCAR-3 ovarian = tested on: OVCAR-3 ovarian
SK-MEL-5 melanoma = tested on: SK-MEL-5 melanoma
RPMI-8226 leukemia = tested on: RPMI-8226 leukemia
LOX IMVI melanoma = tested on: LOX IMVI melanoma
P388/ADR leukemia = tested on: P388/ADR leukemia
MALME-3M melanoma = tested on: MALME-3M melanoma
IGROV1 ovarian = tested on: IGROV1 ovarian
K-562 leukemia = tested on: K-562 leukemia
SN12K1 renal = tested on: SN12K1 renal
SF-539 CNS = tested on: SF-539 CNS
XF 498 CNS = tested on: XF 498 CNS

SMILES: ClCCN(CC#CCCCC#CCN(CCCl)CCCl)CCCl
- TGI (SK-OV-3 ovarian): 27.8 µM
- TGI (DMS 114 small cell lung): 15.8 µM
- TGI (TK-10 renal): 41 µM
- TGI (SF-268 CNS): 33.5 µM
- TGI (SK-MEL-28 melanoma): 38.6 µM
- TGI (HCC-2998 colon): 32.9 µM
- TGI (NCI-H23 lung): 29.3 µM
- TGI (786-0 renal): 20.7 µM
- TGI (ACHN renal): 15.2 µM
- TGI (DLD-1 colon): 35.7 µM
- TGI (UO-31 renal): 47 µM
- TGI (M14 melanoma): 28.6 µM
- TGI (OVCAR-5 ovarian): 26 µM
- TGI (SK-MEL-2 melanoma): 23.4 µM
- TGI (M19-MEL melanoma): 29.5 µM
- TGI (RXF-631 renal): 23.8 µM
- TGI (P388 leukemia): 9.73 µM
- TGI (A549 NSCLC): 31.8 µM
- TGI (CCRF-CEM leukemia): 10.6 µM
- TGI (RXF 393 renal): 33.5 µM
- TGI (HOP-92 NSCLC): 43.1 µM
- TGI (MCF7 breast): 37.5 µM
- TGI (OVCAR-4 ovarian): 61.2 µM
- TGI (SN12C renal): 21.2 µM
- TGI (MOLT-4 leukemia): 6.59 µM
- TGI (OVCAR-8 ovarian): 23.9 µM
- TGI (SW-620 colon): 23.3 µM
- TGI (LXFL 529 NSCLC): 28.3 µM
- TGI (NCI-H522 lung): 21.7 µM
- TGI (UACC-257 melanoma): 29.2 µM
- TGI (KM20L2 colon): 27.7 µM
- TGI (NCI-H226 lung): 37.2 µM
- TGI (EKVX NSCLC): 44.8 µM
- TGI (SR leukemia): 7.66 µM
- TGI (SF-295 CNS): 28.1 µM
- TGI (NCI/ADR-RES ovarian): 58.1 µM
- TGI (CAKI-1 renal): 32.7 µM
- TGI (COLO 205 colon): 30.3 µM
- TGI (A498 renal): 26.4 µM
- TGI (SNB-19 CNS): 27.6 µM
- TGI (HT29 colon): 24.8 µM
- TGI (HCT-15 colon): 27.2 µM
- TGI (SNB-75 CNS): 36.4 µM
- TGI (HOP-18 NSCLC): 44.5 µM
- TGI (HL-60(TB) leukemia): 7.18 µM
- TGI (UACC-62 melanoma): 20 µM
- TGI (DMS 273 small cell lung): 16.6 µM
- TGI (KM12 colon): 44.4 µM
- TGI (SNB-78 CNS): 57.5 µM
- TGI (U251 CNS): 23.8 µM
- TGI (NCI-H460 lung): 16.3 µM
- TGI (HOP-62 NSCLC): 29.3 µM
- TGI (HCT-116 colon): 25.3 µM
- TGI (OVCAR-3 ovarian): 26.7 µM
- TGI (SK-MEL-5 melanoma): 24.3 µM
- TGI (RPMI-8226 leukemia): 13.4 µM
- TGI (LOX IMVI melanoma): 20.9 µM
- TGI (P388/ADR leukemia): 9.09 µM
- TGI (MALME-3M melanoma): 32.5 µM
- TGI (IGROV1 ovarian): 35.1 µM
- TGI (K-562 leukemia): 37.7 µM
- TGI (SN12K1 renal): 25.3 µM
- TGI (SF-539 CNS): 27 µM

SMILES: C[C@]12CC[C@H](OC(=O)Cc3ccc(N(CCCl)CCCl)cc3)CC1CC[C@@H]1C2CC[C@]2(C)NC(=O)CCC12 (some centres not stated)
- TGI (SK-OV-3 ovarian): 33.8 µM
- TGI (DMS 114 small cell lung): 21.9 µM
- TGI (TK-10 renal): 44.4 µM
- TGI (SF-268 CNS): 33 µM
- TGI (SK-MEL-28 melanoma): 31.9 µM
- TGI (HCC-2998 colon): 34.8 µM
- TGI (NCI-H23 lung): 35.4 µM
- TGI (786-0 renal): 29 µM
- TGI (ACHN renal): 27.7 µM
- TGI (DLD-1 colon): 32.4 µM
- TGI (UO-31 renal): > 100 µM
- TGI (M14 melanoma): 28.8 µM
- TGI (SK-MEL-2 melanoma): 48.7 µM
- TGI (M19-MEL melanoma): 28.8 µM
- TGI (RXF-631 renal): 34.1 µM
- TGI (A549 NSCLC): 37.5 µM
- TGI (CCRF-CEM leukemia): 18 µM
- TGI (RXF 393 renal): 24.3 µM
- TGI (HOP-92 NSCLC): 35.6 µM
- TGI (OVCAR-4 ovarian): 28.9 µM
- TGI (SN12C renal): 18.6 µM
- TGI (MOLT-4 leukemia): 15.6 µM
- TGI (SW-620 colon): 24.7 µM
- TGI (LXFL 529 NSCLC): 25 µM
- TGI (NCI-H522 lung): 25.4 µM
- TGI (UACC-257 melanoma): 27 µM
- TGI (KM20L2 colon): 23.7 µM
- TGI (NCI-H226 lung): 69.6 µM
- TGI (XF 498 CNS): 28.3 µM
- TGI (SF-295 CNS): 25.2 µM
- TGI (CAKI-1 renal): 15.3 µM
- TGI (COLO 205 colon): 18.4 µM
- TGI (A498 renal): 43.5 µM
- TGI (SNB-19 CNS): > 100 µM
- TGI (HT29 colon): 3.79 µM
- TGI (HCT-15 colon): 30.6 µM
- TGI (SNB-75 CNS): 27.4 µM
- TGI (HOP-18 NSCLC): 31.4 µM
- TGI (HL-60(TB) leukemia): 6.06 µM
- TGI (UACC-62 melanoma): 21.4 µM
- TGI (DMS 273 small cell lung): 20.5 µM
- TGI (KM12 colon): 25.5 µM
- TGI (SNB-78 CNS): 39.3 µM
- TGI (U251 CNS): 29.3 µM
- TGI (NCI-H460 lung): 35.1 µM
- TGI (HCT-116 colon): 18.5 µM
- TGI (OVCAR-3 ovarian): 14.8 µM
- TGI (SK-MEL-5 melanoma): 32.5 µM
- TGI (RPMI-8226 leukemia): 23 µM
- TGI (LOX IMVI melanoma): 27.2 µM
- TGI (MALME-3M melanoma): 35.7 µM
- TGI (IGROV1 ovarian): 30.5 µM
- TGI (K-562 leukemia): 24.8 µM
- TGI (SF-539 CNS): 12.5 µM
